Experiments:
Assay in all cases: relative viability (nuclei count vs DMSO), 5 days (fraction); higher = more cells survive
NCI-H2009 = tested on: NCI-H2009
Summary of the method: (§1)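 After 5 days of treatment, lung cancer cells in 1536-well plates were fixed and stained in a single step (final 0.05% Triton X-100, 1% formaldehyde, 1 ug/ml Hoechst) and their nuclei counted on 4× images. Treatment had been applied by pin tool the day after seeding as one drug alone or as a fixed anchor-drug dose with five library-drug doses (not always all listed) in √10 steps. Relative viability is the nuclei count of treated wells divided by that of vehicle wells, and values are medians of duplicate plates.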

201T = tested on: 201T
Summary of the method: as §1

NCI-H650 = tested on: NCI-H650
Summary of the method: as §1

NCI-H1650 = tested on: NCI-H1650
Summary of the method: as §1

HCC-44 = tested on: HCC-44
Summary of the method: as §1

RERF-LC-KJ = tested on: RERF-LC-KJ
Summary of the method: as §1

NCI-H1734 = tested on: NCI-H1734
Summary of the method: as §1

NCI-H441 = tested on: NCI-H441
Summary of the method: as §1

HCC-15 = tested on: HCC-15
Summary of the method: as §1

LCLC-97TM1 = tested on: LCLC-97TM1
Summary of the method: as §1

NCI-H2126 = tested on: NCI-H2126
Summary of the method: as §1

A-427 = tested on: A-427
Summary of the method: as §1

HCC-366 = tested on: HCC-366
Summary of the method: as §1

NCI-H1993 = tested on: NCI-H1993
Summary of the method: as §1

SW 1573 = tested on: SW 1573
Summary of the method: as §1

HARA = tested on: HARA
Summary of the method: as §1

NCI-H460 = tested on: NCI-H460
Summary of the method: as §1

LOU-NH91 = tested on: LOU-NH91
Summary of the method: as §1

HCC-78 = tested on: HCC-78
Summary of the method: as §1

COR-L23 = tested on: COR-L23
Summary of the method: as §1

ChaGo-K-1 = tested on: ChaGo-K-1
Summary of the method: as §1

NCI-H2023 = tested on: NCI-H2023
Summary of the method: as §1

LCLC-103H = tested on: LCLC-103H
Summary of the method: as §1

With `O=c1[nH]c2ccccc2n1C1CCN(CCCC(c2ccc(F)cc2)c2ccc(F)cc2)CC1` [Pimozide] + COc1cccc2cc(-c3nc([C@H]4CC[C@H](C(=O)O)CC4)n4ncnc(N)c34)[nH]c12 [OSI-027] (partner 0.5 µM) the relative viability (NCI-H2009; first compound 0.08 µM) was 0.69, the relative viability (NCI-H2009; first compound 0.253 µM) was 0.655 and the relative viability (NCI-H2009; first compound 0.8 µM) was 0.671. It also gave a relative viability (NCI-H2009; first compound 2.53 µM) of 0.526, a relative viability (NCI-H2009; first compound 8 µM) of 0.416 and a relative viability (201T; first compound 0.08 µM) of 0.821. The relative viability (201T; first compound 0.253 µM) was 0.825, the relative viability (201T; first compound 0.8 µM) was 0.711 and the relative viability (201T; first compound 2.53 µM) was 0.709. For the same molecule, the relative viability (201T; first compound 8 µM) was 0.584, the relative viability (NCI-H650; first compound 0.08 µM) was 0.536 and the relative viability (NCI-H650; first compound 0.253 µM) was 0.555. It also gave a relative viability (NCI-H650; first compound 0.8 µM) of 0.405, a relative viability (NCI-H650; first compound 2.53 µM) of 0.537 and a relative viability (NCI-H650; first compound 8 µM) of 0.606. It also gave a relative viability (NCI-H1650; first compound 0.08 µM) of 0.459, a relative viability (NCI-H1650; first compound 0.253 µM) of 0.668 and a relative viability (NCI-H1650; first compound 0.8 µM) of 0.491. It also gave a relative viability (NCI-H1650; first compound 2.53 µM) of 0.643, a relative viability (NCI-H1650; first compound 8 µM) of 0.437 and a relative viability (HCC-44; first compound 0.08 µM) of 0.489. The relative viability (HCC-44; first compound 0.253 µM) was 0.554, the relative viability (HCC-44; first compound 0.8 µM) was 0.4 and the relative viability (HCC-44; first compound 2.53 µM) was 0.52. It also gave a relative viability (HCC-44; first compound 8 µM) of 0.289, a relative viability (RERF-LC-KJ; first compound 0.08 µM) of 0.509 and a relative viability (RERF-LC-KJ; first compound 0.253 µM) of 0.513. It also gave a relative viability (RERF-LC-KJ; first compound 0.8 µM) of 0.52, a relative viability (RERF-LC-KJ; first compound 2.53 µM) of 0.427 and a relative viability (RERF-LC-KJ; first compound 8 µM) of 0.448. For the same molecule, the relative viability (NCI-H1734; first compound 0.08 µM) was 0.604, the relative viability (NCI-H1734; first compound 0.253 µM) was 0.625 and the relative viability (NCI-H1734; first compound 2.53 µM) was 0.581. It also gave a relative viability (NCI-H1734; first compound 8 µM) of 0.549, a relative viability (NCI-H441; first compound 0.08 µM) of 0.608 and a relative viability (NCI-H441; first compound 0.253 µM) of 0.577. It also gave a relative viability (NCI-H441; first compound 0.8 µM) of 0.478, a relative viability (NCI-H441; first compound 2.53 µM) of 0.436 and a relative viability (NCI-H441; first compound 8 µM) of 0.406. It also gave a relative viability (HCC-15; first compound 0.08 µM) of 0.817, a relative viability (HCC-15; first compound 0.253 µM) of 0.668 and a relative viability (HCC-15; first compound 0.8 µM) of 0.472. For the same molecule, the relative viability (HCC-15; first compound 2.53 µM) was 0.618, the relative viability (HCC-15; first compound 8 µM) was 0.573 and the relative viability (LCLC-97TM1; first compound 0.08 µM) was 0.488. The relative viability (LCLC-97TM1; first compound 0.253 µM) was 0.363, the relative viability (LCLC-97TM1; first compound 0.8 µM) was 0.447 and the relative viability (LCLC-97TM1; first compound 2.53 µM) was 0.422. It also gave a relative viability (LCLC-97TM1; first compound 8 µM) of 0.278, a relative viability (NCI-H2126; first compound 0.08 µM) of 0.711 and a relative viability (NCI-H2126; first compound 0.253 µM) of 0.63. It also gave a relative viability (NCI-H2126; first compound 0.8 µM) of 0.755, a relative viability (NCI-H2126; first compound 2.53 µM) of 0.712 and a relative viability (NCI-H2126; first compound 8 µM) of 0.744. The relative viability (A-427; first compound 0.08 µM) was 0.433, the relative viability (A-427; first compound 0.253 µM) was 0.468 and the relative viability (A-427; first compound 0.8 µM) was 0.414. For the same molecule, the relative viability (A-427; first compound 2.53 µM) was 0.419, the relative viability (A-427; first compound 8 µM) was 0.406 and the relative viability (HCC-366; first compound 0.08 µM) was 0.825. The relative viability (HCC-366; first compound 0.253 µM) was 0.795, the relative viability (HCC-366; first compound 0.8 µM) was 0.477 and the relative viability (HCC-366; first compound 2.53 µM) was 0.614. It also gave a relative viability (HCC-366; first compound 8 µM) of 0.206, a relative viability (NCI-H1993; first compound 0.08 µM) of 0.562 and a relative viability (NCI-H1993; first compound 0.253 µM) of 0.572. It also gave a relative viability (NCI-H1993; first compound 0.8 µM) of 0.539, a relative viability (NCI-H1993; first compound 2.53 µM) of 0.581 and a relative viability (NCI-H1993; first compound 8 µM) of 0.479. It also gave a relative viability (SW 1573; first compound 0.08 µM) of 0.611, a relative viability (SW 1573; first compound 0.253 µM) of 0.668 and a relative viability (SW 1573; first compound 0.8 µM) of 0.602. The relative viability (SW 1573; first compound 2.53 µM) was 0.525, the relative viability (SW 1573; first compound 8 µM) was 0.307 and the relative viability (HARA; first compound 0.253 µM) was 0.518. The relative viability (HARA; first compound 0.8 µM) was 0.196, the relative viability (HARA; first compound 2.53 µM) was 0.384 and the relative viability (HARA; first compound 8 µM) was 0.264. It also gave a relative viability (NCI-H460; first compound 0.08 µM) of 0.755, a relative viability (NCI-H460; first compound 0.253 µM) of 0.66 and a relative viability (NCI-H460; first compound 0.8 µM) of 0.708. The relative viability (NCI-H460; first compound 2.53 µM) was 0.518, the relative viability (NCI-H460; first compound 8 µM) was 0.484 and the relative viability (LOU-NH91; first compound 0.08 µM) was 0.442. It also gave a relative viability (LOU-NH91; first compound 0.253 µM) of 0.699, a relative viability (LOU-NH91; first compound 0.8 µM) of 0.638 and a relative viability (LOU-NH91; first compound 2.53 µM) of 0.729. It also gave a relative viability (LOU-NH91; first compound 8 µM) of 0.708, a relative viability (HCC-78; first compound 0.08 µM) of 0.439 and a relative viability (HCC-78; first compound 0.8 µM) of 0.345. It also gave a relative viability (HCC-78; first compound 2.53 µM) of 0.36, a relative viability (HCC-78; first compound 8 µM) of 0.354 and a relative viability (COR-L23; first compound 0.08 µM) of 0.757. It also gave a relative viability (COR-L23; first compound 0.253 µM) of 0.75, a relative viability (COR-L23; first compound 0.8 µM) of 0.694 and a relative viability (COR-L23; first compound 2.53 µM) of 0.731. The relative viability (COR-L23; first compound 8 µM) was 0.639, the relative viability (ChaGo-K-1; first compound 0.08 µM) was 0.594 and the relative viability (ChaGo-K-1; first compound 0.253 µM) was 0.555. It also gave a relative viability (ChaGo-K-1; first compound 0.8 µM) of 0.517, a relative viability (ChaGo-K-1; first compound 2.53 µM) of 0.531 and a relative viability (ChaGo-K-1; first compound 8 µM) of 0.485. The relative viability (NCI-H2023; first compound 0.08 µM) was 0.418, the relative viability (NCI-H2023; first compound 0.253 µM) was 0.465 and the relative viability (NCI-H2023; first compound 0.8 µM) was 0.413. It also gave a relative viability (NCI-H2023; first compound 2.53 µM) of 0.307, a relative viability (NCI-H2023; first compound 8 µM) of 0.231 and a relative viability (LCLC-103H; first compound 0.08 µM) of 0.482. It also gave a relative viability (LCLC-103H; first compound 0.253 µM) of 0.452, a relative viability (LCLC-103H; first compound 0.8 µM) of 0.384 and a relative viability (LCLC-103H; first compound 2.53 µM) of 0.425. It also gave a relative viability (LCLC-103H; first compound 8 µM) of 0.423.
